Test results from PubChem BioAssay AID256 (DTP/NCI, 2004).
Where “and” joins values, the source holds several entries; their conditions need not be identical. Identical values can stand only once. Inconclusive results and toxic doses are left out. The calls were made as follows: active = survival T/C of 150% or more; inactive = T/C below 125% in these data.

System: CD2F1 mice, L1210 leukemia ip, survival T/C
Experiment: NCI In Vivo Anticancer Drug Screen. Data for tumor model L1210 Leukemia (intraperitoneal) in CD2F1 (CDF1) mice
Settings: higher = longer survival
Procedure, shortened: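 In this screen, transplantable tumors were grown in mice given either the compound or its vehicle. Results were expressed as the treated measurement relative to the control measurement.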

[1] = endpoint: mean survival time, dose: 100.0 mg/kg/injection, schedule: Q04DX003 (ip), vehicle: Klucel (hydroxypropylcellulose) (HPC)
[2] = endpoint: mean survival time, dose: 200.0 mg/kg/injection, schedule: Q04DX003 (ip), vehicle: Klucel (hydroxypropylcellulose) (HPC)
[3] = endpoint: mean survival time, dose: 100.0 mg/kg/injection, schedule: Q01DX001 (ip), vehicle: Klucel (hydroxypropylcellulose) (HPC)
[4] = endpoint: mean survival time, dose: 200.0 mg/kg/injection, schedule: Q01DX001 (ip), vehicle: Klucel (hydroxypropylcellulose) (HPC)
[5] = endpoint: mean survival time, dose: 400.0 mg/kg/injection, schedule: Q01DX001 (ip), vehicle: Klucel (hydroxypropylcellulose) (HPC)
[6] = endpoint: mean survival time, dose: 100.0 mg/kg/injection, schedule: Q01DX009 (ip), vehicle: saline with Tween-80
[7] = endpoint: mean survival time, dose: 100.0 mg/kg/injection, schedule: Q04DX003 (ip), vehicle: saline with Tween-80
[8] = endpoint: mean survival time, dose: 200.0 mg/kg/injection, schedule: Q01DX009 (ip), vehicle: saline with Tween-80
[9] = endpoint: mean survival time, dose: 200.0 mg/kg/injection, schedule: Q04DX003 (ip), vehicle: saline with Tween-80
[10] = endpoint: mean survival time, dose: 400.0 mg/kg/injection, schedule: Q04DX003 (ip), vehicle: saline with Tween-80
[11] = endpoint: mean survival time, dose: 400.0 mg/kg/injection, schedule: Q01DX009 (ip), vehicle: saline with Tween-80
[12] = endpoint: mean survival time, dose: 100.0 mg/kg/injection, schedule: Q01DX001 (ip), vehicle: saline with Tween-80
[13] = endpoint: mean survival time, dose: 400.0 mg/kg/injection, schedule: Q01DX001 (ip), vehicle: saline with Tween-80
[14] = endpoint: mean survival time, dose: 100.0 mg/kg/injection, schedule: Q04DX002 (ip), vehicle: saline with Tween-80
[15] = endpoint: mean survival time, dose: 200.0 mg/kg/injection, schedule: Q04DX002 (ip), vehicle: saline with Tween-80
[16] = endpoint: mean survival time, dose: 400.0 mg/kg/injection, schedule: Q04DX002 (ip), vehicle: saline with Tween-80

Measured: T/C

O=C(O)CC1C(=O)OC2C3COC(=O)c4cc(O)c(O)c(O)c4-c4c(cc(O)c(O)c4O)C(=O)OC2C(OC(=O)c2cc(O)c(O)c4c2C1C(O)C(=O)O4)C(OC(=O)c1cc(O)c(O)c(O)c1)O3 (stereo not given)
inactive: endpoint: median survival time, dose: 3.12 mg/kg/injection, schedule: Q01DX009 (ip), vehicle: saline 102 % of control | endpoint: median survival time, dose: 6.25 mg/kg/injection, schedule: Q01DX009 (ip), vehicle: saline 98 % of control | endpoint: median survival time, dose: 12.5 mg/kg/injection, schedule: Q01DX009 (ip), vehicle: saline 101 % of control | endpoint: median survival time, dose: 25.0 mg/kg/injection, schedule: Q01DX009 (ip), vehicle: saline 98 % of control | endpoint: median survival time, dose: 50.0 mg/kg/injection, schedule: Q01DX009 (ip), vehicle: saline 100 % of control

CC1=C(/C=C/C(O)CC(O)(C(F)(F)F)C(F)(F)F)C(C)(C)CCC1 (stereo not given)
inactive: endpoint: mean survival time, dose: 100.0 mg/kg/injection, schedule: Q04DX003 (ip), vehicle: saline 107 % of control | endpoint: mean survival time, dose: 200.0 mg/kg/injection, schedule: Q04DX003 (ip), vehicle: saline 98 % of control | endpoint: mean survival time, dose: 400.0 mg/kg/injection, schedule: Q04DX003 (ip), vehicle: saline 110 % of control

CC1([N+](=O)[O-])COC(c2ccc(Cl)cc2)OC1 (stereo not given)
inactive: [1] 96 % of control | [2] 104 % of control

CCCCOC1CCC2(C)C(=CCC3C2CCC2(C)C(C(C)CCCC(C)C)CCC32)C1 (stereo not given)
inactive: endpoint: mean survival time, dose: 100.0 mg/kg/injection, schedule: Q01DX009 (sc), vehicle: steriod suspending solution 114 % of control | endpoint: mean survival time, dose: 100.0 mg/kg/injection, schedule: Q04DX003 (sc), vehicle: steriod suspending solution 91 % of control | endpoint: mean survival time, dose: 200.0 mg/kg/injection, schedule: Q01DX009 (sc), vehicle: steriod suspending solution 102 % of control | endpoint: mean survival time, dose: 200.0 mg/kg/injection, schedule: Q04DX003 (sc), vehicle: steriod suspending solution 96 % of control | endpoint: mean survival time, dose: 400.0 mg/kg/injection, schedule: Q01DX009 (sc), vehicle: steriod suspending solution 103 % of control | endpoint: mean survival time, dose: 400.0 mg/kg/injection, schedule: Q04DX003 (sc), vehicle: steriod suspending solution 102 % of control

COc1ccc(NS(=O)(=O)c2ccc(NC(C)=O)cc2)cc1
inactive: [3] 104 % of control | endpoint: mean survival time, dose: 100.0 mg/kg/injection, schedule: Q01DX009 (ip), vehicle: Klucel (hydroxypropylcellulose) (HPC) 97 % of control | [4] 96 % of control | endpoint: mean survival time, dose: 200.0 mg/kg/injection, schedule: Q01DX009 (ip), vehicle: Klucel (hydroxypropylcellulose) (HPC) 105 % of control | [5] 98 % of control | endpoint: mean survival time, dose: 400.0 mg/kg/injection, schedule: Q01DX009 (ip), vehicle: Klucel (hydroxypropylcellulose) (HPC) 96 % of control

Nc1nc(N)c2nc(CNc3ccc(C(=O)NC(CCC(=O)NC(CCC(=O)O)C(=O)O)C(=O)O)cc3)cnc2n1 (stereo not given)
inactive: endpoint: mean survival time, dose: 0.7 mg/kg/injection, schedule: Q01DX009 (ip), vehicle: sodium bicarbonate 96 % of control | endpoint: mean survival time, dose: 1.1 mg/kg/injection, schedule: Q01DX009 (ip), vehicle: sodium bicarbonate 92 % of control

CCCCCCCCCCCC1CCCC(C)N1 (stereo not given)
inactive: endpoint: mean survival time, dose: 50.0 mg/kg/injection, schedule: Q04DX002 (ip), vehicle: saline with Tween-80 98 % of control

N#Cc1c(F)c(F)cc(F)c1F
inactive: [6] 100 % of control | [7] 96 % of control | [8] 96 % of control | [9] 96 % of control | [10] 93 % of control

CC(CC(O)(C(F)(F)F)C(F)(F)F)OC(=O)Nc1ccc(Cl)c(Cl)c1 (stereo not given)
inactive: [1] 96 % of control | [2] 101 % of control | endpoint: mean survival time, dose: 400.0 mg/kg/injection, schedule: Q04DX003 (ip), vehicle: Klucel (hydroxypropylcellulose) (HPC) 101 % of control

COC(=O)C(O)c1ccc2c(c1)OCO2 (stereo not given)
inactive: [6] 97 % of control | [8] 90 % of control | [11] 90 % of control

CC(=O)C(C(C)=O)C(c1ccccc1Cl)C(C(C)=O)C(C)=O
inactive: [6] 98 % of control | [8] 102 % of control | [11] 95 % of control

O=C(O)C(CSC(c1ccccc1)(c1ccccc1)c1ccccc1)NC(c1ccccc1)(c1ccccc1)c1ccccc1 (stereo not given)
inactive: endpoint: mean survival time, dose: 75.0 mg/kg/injection, schedule: Q01DX001 (ip), vehicle: other 97 % of control

CCOC(=O)C(CCC#N)(CCC#N)C(=O)OCC
inactive: [6] 91 % of control | [7] 96 % of control | [8] 94 % of control | [9] 102 % of control | [11] 94 % of control | [10] 104 % of control

N#Cc1c(Cl)cc(C2(O)C3C=CC2CC3)cc1Cl (stereo not given)
inactive: endpoint: median survival time, dose: 25.0 mg/kg/injection, schedule: Q04DX002 (ip), vehicle: saline with Tween-80 112 % of control | endpoint: median survival time, dose: 50.0 mg/kg/injection, schedule: Q04DX002 (ip), vehicle: saline with Tween-80 100 % of control | endpoint: median survival time, dose: 100.0 mg/kg/injection, schedule: Q04DX002 (ip), vehicle: saline with Tween-80 100 % of control | endpoint: median survival time, dose: 200.0 mg/kg/injection, schedule: Q04DX002 (ip), vehicle: saline with Tween-80 112 % of control

O=C(O)/C=C/C=C/C(=O)O
inactive: [12] 102 % of control and 101 % of control | endpoint: mean survival time, dose: 200.0 mg/kg/injection, schedule: Q01DX001 (ip), vehicle: saline with Tween-80 104 % of control and 93 % of control | [13] 100 % of control and 101 % of control

COc1c(C)c2c(c3c1CC(O)O3)C(=O)OC2 (stereo not given)
inactive: [14] 112 % of control | [15] 103 % of control | [16] 106 % of control

CCOC(=O)C1(C(=O)OCC)C(C)CC(O)N1C(=O)c1cc2c(cc1[N+](=O)[O-])OCO2 (stereo not given)
inactive: [3] 100 % of control | [4] 100 % of control | [5] 104 % of control

Clc1c(Cl)c(Cl)c(CSCc2c(Cl)c(Cl)c(Cl)c(Cl)c2Cl)c(Cl)c1Cl
inactive: [6] 93 % of control | [7] 91 % of control | [8] 96 % of control | [9] 96 % of control | [11] 94 % of control | [10] 90 % of control

ClP1(c2ccccc2)=NP(Cl)(c2ccccc2)=NP(Cl)(c2ccccc2)=NP(Cl)(c2ccccc2)=N1 (stereo not given)
inactive: [7] 96 % of control | [9] 94 % of control

CC(=O)OCC1OC(Oc2c([N+](=O)[O-])cc([N+](=O)[O-])c3ccccc23)C(OC(C)=O)C(OC(C)=O)C1OC(C)=O (stereo not given)
inactive: [14] 96 % of control | [15] 93 % of control | [16] 104 % of control

O=C(NCCCCOc1ccc([N+](=O)[O-])cc1Cl)NC1CCCCC1
inactive: [7] 102 % of control | [9] 94 % of control | [10] 91 % of control

O=C1Nc2ccc3c4c(ccc1c24)CC3
inactive: [12] 105 % of control | [13] 94 % of control
